Measured values taken from patent publication US9421188B2, “Combination product comprising phentermine and topiramate, and preparation method thereof” (Institute of Pharmacology and Toxicology Academy of …, priority 2012, dated 2016).

Key:
[1] = cited from earlier work
[2] = cited from earlier work; remark: listed apart in the source
human plasma protein = conditions: plasma concentration range of 0.5-250 μm/ml; decreases with increase of plasma concentration; cited from earlier work
[3] = Effects of different dissolution media on release rate of sustained-release pellet of topiramate; assay type: physicochemical; conditions: artificial gastric fluid with pH of 1.2; degradation reaction
Description: In order to verify whether acidic, basic solvent media would influence the release rate of the sustained-release pellets of the present invention, 0.1 mol/L HCl (pH1.2) was prepared as artificial gastric fluid, […] phosphate buffer (pH6.8) was prepared as artificial intestinal fluid, and these media and water (500 ml) were used as release media separately, and rotation speed was 100 rpm, 37° C. 5 ml of Samples (supplemented with equivalent volume of media at the meantime) were separately taken at 1, 2, 4, 8, 12, 16, 20, 24 h, filtrated, and the subsequent filtrates were used as test solutions. High performance liquid chromatography (Appendix V D, Part II, Chinese Pharmacopoeia, 2010 Edition) was used, octylsilane-bonded silica gel was used as packing agent, 50% methanol was mobile phase, differential refractive detector was used, and flow rate was 1.5 ml per minute. 200 μl of test solution was taken and injected in liquid chromatography, and the peak area of topiramate as main drug was recorded; moreover, topiramate was taken as reference material and measured by the same method, and accumulative release percentages of drug at different time points were calculated by external standard method. The release profile of sample of Batch 1 in Example 6 (2) in the above mentioned media were drawn, and the results were shown in FIG. 2.

Compound: CC1(C)O[C@@H]2[C@@H](CO[C@@]3(COS(N)(=O)=O)OC(C)(C)O[C@@H]23)O1 [Topiramate, 2,3,4,5-bis-O-(1-methylethylidene)-β-D-fructopyranose sulfamate]
- Plasma half-life ([1]; human, in vivo): 19 to 25 h
- Clearance for oral administration ([1]; oral administration): 22 to 36 mL/min
- Solubility in organic solvents ([2]; acetone, chloroform, dimethylsulfoxide and ethanol): freely soluble
- Solubility in alkaline solution ([2]; pH of 9-10, sodium hydroxide or sodium phosphate solutions): very freely soluble
- Human plasma protein binding ratio (human plasma protein): 15-41%
- Stability of topiramate in artificial gastric fluid [3]: unstable
